Results reported in patent EP4800012A1, “COMPOUND ACTING AS PARP7 INHIBITOR” (Dovetree Medicines Unus, Inc., priority 2023, dated 2025).

Key:
PARP7 [1] = biological target: T1, PARP7 (Homo sapiens, UniProt Q7Z3E1); assay: Inhibition of the compound on PARP7 protein activity (ADP-ribosylation, chemiluminescence); assay type: biochemical; settings: Histone H1 coated plate, Biotin-Labeled NAD+, 2 h at room temperature, chemiluminescence; read-out: PARP7 activity inhibition IC50
T1 construct: purchased BPS 80527
T1 sequence (Q7Z3E1 1-657): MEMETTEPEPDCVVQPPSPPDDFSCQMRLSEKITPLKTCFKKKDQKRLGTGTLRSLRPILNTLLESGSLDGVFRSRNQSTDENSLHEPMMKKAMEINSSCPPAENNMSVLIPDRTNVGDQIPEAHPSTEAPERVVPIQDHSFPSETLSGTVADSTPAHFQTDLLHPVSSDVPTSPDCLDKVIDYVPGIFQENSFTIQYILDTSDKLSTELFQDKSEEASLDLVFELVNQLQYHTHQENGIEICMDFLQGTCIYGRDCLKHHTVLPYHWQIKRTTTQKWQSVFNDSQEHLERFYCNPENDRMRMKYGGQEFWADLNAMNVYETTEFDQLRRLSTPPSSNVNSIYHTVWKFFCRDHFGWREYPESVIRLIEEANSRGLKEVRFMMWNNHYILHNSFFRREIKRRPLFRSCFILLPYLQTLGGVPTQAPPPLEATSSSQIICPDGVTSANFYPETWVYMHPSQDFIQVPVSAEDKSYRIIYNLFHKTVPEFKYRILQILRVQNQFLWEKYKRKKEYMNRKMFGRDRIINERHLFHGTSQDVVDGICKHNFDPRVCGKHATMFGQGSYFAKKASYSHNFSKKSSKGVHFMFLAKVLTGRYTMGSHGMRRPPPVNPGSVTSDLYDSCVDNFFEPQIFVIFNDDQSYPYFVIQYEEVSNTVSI

NCI-H1373 cells = assay: Inhibition on NCI-H1373 cell proliferation (Cell-Titer-Glo); assay type: cell-based; settings: Homo sapiens, 144 h; NCI-H1373 cells, incubation for 6 days, Cell-Titer-Glo; read-out: NCI-H1373 cell proliferation inhibition IC50
PARP7 [2] = biological target: T1, PARP7; assay: PARP7 TR-FRET binding inhibition (displacement of probe RBN011147); settings: TR-FRET, Biotin-labeled probe RBN011147; read-out: PARP7 binding inhibition IC50
Experimental: The ability of the compound to substitute the probe RBN011147 (Wigle et al., 2020, Cell Chemical Biology 27, 877-887) was tested by a TR-FRET method, and IC50 was calculated to evaluate the binding ability of the compound to PARP7. […]

PARP1 = PARP1 (Homo sapiens, UniProt P09874); assay: PARP1 in vitro enzyme activity inhibition (chemiluminescence assay); assay type: biochemical; settings: 5 nM of PARP1 solution, method of test example 1; read-out: PARP1 activity inhibition IC50
Sequence of PARP1 (P09874 whole entry, species assumed): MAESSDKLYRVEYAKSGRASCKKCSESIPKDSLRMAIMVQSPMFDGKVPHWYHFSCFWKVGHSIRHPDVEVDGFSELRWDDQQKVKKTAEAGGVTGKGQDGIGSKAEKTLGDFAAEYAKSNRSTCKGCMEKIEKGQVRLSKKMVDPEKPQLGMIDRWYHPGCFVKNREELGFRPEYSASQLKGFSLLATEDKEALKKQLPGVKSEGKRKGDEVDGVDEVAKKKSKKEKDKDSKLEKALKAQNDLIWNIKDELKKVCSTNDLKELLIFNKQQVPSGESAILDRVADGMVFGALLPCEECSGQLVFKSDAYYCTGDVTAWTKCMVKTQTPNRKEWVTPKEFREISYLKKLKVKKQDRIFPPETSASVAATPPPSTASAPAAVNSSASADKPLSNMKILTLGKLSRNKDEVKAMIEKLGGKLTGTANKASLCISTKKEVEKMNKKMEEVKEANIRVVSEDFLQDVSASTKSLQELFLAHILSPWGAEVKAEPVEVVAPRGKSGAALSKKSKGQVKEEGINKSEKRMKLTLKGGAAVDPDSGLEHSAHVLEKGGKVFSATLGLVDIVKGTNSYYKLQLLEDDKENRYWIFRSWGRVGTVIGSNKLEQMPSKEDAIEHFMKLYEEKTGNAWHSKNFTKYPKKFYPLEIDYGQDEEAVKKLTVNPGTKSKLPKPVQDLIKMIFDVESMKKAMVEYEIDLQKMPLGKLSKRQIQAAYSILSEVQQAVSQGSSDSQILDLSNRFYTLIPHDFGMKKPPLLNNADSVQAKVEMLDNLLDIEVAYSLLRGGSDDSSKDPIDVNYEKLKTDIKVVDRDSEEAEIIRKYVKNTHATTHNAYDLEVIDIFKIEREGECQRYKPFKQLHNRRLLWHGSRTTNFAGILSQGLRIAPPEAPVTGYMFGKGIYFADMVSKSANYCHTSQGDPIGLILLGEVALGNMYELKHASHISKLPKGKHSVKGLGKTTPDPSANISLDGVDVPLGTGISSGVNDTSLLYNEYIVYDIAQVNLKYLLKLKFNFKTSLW
Experimental: (§1) Following the method in test example 1, the IC50 value of the inhibition of each compound on PARP7 activity were detected and obtained. Reference was made to the method in test example 1, except that the 6.25 nM of PARP7 solution in the ribosylation reaction step was replaced with a 5 nM of PARP1 solution or a 5 nM of PARP2. Similar to the 6.25 nM of PARP7 solution, the 5 nM of PARP1 solution and 5 nM of PARP2 solution were also formulated and obtained by using 1× Assay buffer.

PARP2 = PARP2 (Homo sapiens, UniProt Q9UGN5); assay: PARP2 in vitro enzyme activity inhibition (chemiluminescence assay); assay type: biochemical; settings: 5 nM of PARP2, method of test example 1; read-out: PARP2 activity inhibition IC50
Sequence of PARP2 (Q9UGN5 whole entry, species assumed): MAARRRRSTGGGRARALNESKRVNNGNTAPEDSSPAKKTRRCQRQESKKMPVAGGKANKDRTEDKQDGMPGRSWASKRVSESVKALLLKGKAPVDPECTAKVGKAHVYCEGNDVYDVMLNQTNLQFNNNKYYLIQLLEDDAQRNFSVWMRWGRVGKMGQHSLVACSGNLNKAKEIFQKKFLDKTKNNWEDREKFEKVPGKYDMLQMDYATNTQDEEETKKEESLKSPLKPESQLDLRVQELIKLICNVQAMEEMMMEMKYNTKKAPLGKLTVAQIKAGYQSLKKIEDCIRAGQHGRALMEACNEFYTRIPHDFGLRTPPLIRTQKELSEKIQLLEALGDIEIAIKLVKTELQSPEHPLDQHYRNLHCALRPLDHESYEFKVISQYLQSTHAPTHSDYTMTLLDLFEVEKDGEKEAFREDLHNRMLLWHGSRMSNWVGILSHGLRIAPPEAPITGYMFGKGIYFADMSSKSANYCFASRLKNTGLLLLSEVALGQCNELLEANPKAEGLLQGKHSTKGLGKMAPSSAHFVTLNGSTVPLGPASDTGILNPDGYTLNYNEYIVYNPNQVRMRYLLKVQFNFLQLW
Experimental: as §1

PARP7 [3] = biological target: T1, PARP7; assay: PARP7 in vitro enzyme activity inhibition (chemiluminescence assay, selectivity test); assay type: biochemical; settings: 6.25 nM of PARP7 solution, method of test example 1; read-out: PARP7 activity inhibition IC50
Experimental: as §1

## CC1(C#N)CN(C(=O)[C@@H](CCCNC(=O)c2ccc(-c3ncc(C(F)(F)F)s3)cc2)Nc2cn[nH]c(=O)c2C(F)(F)F)C1 [Example 247]
PARP7 [1]
  IC50: 3 to 10 nM
NCI-H1373 cells
  IC50: > 3000 nM
PARP7 [2]
  IC50: 10 to 30 nM
PARP1
  IC50: 10 to 30 nM
PARP2
  IC50: 30 to 100 nM
PARP7 [3]
  IC50: 3 to 10 nM
